We go through one molecule from ChEMBL document CHEMBL3351930, “Synthesis of novel chiral TBBt derivatives with hydroxyl moiety. Studies on inhibition of human protein kinase CK2α and cytotoxicity properties” (Eur J Med Chem, 2014).

In assay [1] the test system is CCRF-CEM. The experiment in a line: Anticancer activity against human CCRF-CEM cells assessed as cell viability at 25 uM after 48 hrs by MTT assay. Format: functional. The conditions noted are these: read-out: Activity.
Assay [2] has as its system CCRF-CEM. The experiment in a line: Anticancer activity against human CCRF-CEM cells assessed as cell viability at 12.5 uM after 48 hrs by MTT assay. Format: functional. To be noted: read-out: Activity. In general terms: Tetrazolium dyes change colour on reduction, which living cells bring about.
In assay [3] the test system is CCRF-CEM. Briefly: Anticancer activity against human CCRF-CEM cells assessed as cell viability at 50 uM after 24 hrs by MTT assay. Format: functional. To be noted: read-out: Activity.
Assay [4] deals with MCF7. Briefly: Anticancer activity against human MCF7 cells assessed as cell viability at 25 uM after 48 hrs by MTT assay. The assay is classed as functional. The conditions noted are these: MCF7, 48 h, read-out: Activity.
The target of assay [5] is Casein kinase II subunit alpha (Homo sapiens) (UniProt P68400). Briefly: Inhibition of human CK2alpha using RRRDDDSDDD peptide substrate at 20 uM by P81 filter-binding assay. Further details: scale not given: the % may be the effect or the level left.
For assay [6], the system named is MCF7. Briefly: Anticancer activity against human MCF7 cells assessed as cell viability at 100 uM after 48 hrs by MTT assay. The assay is classed as functional. To be noted: MCF7, 48 h, read-out: Activity.
The subject of assay [7] is MCF7. Briefly: Anticancer activity against human MCF7 cells assessed as cell viability at 12.5 uM after 24 hrs by MTT assay. The conditions noted are these: MCF7, 24 h, read-out: Activity. The assay is classed as functional.
Assay [8] has as its system CCRF-CEM. The experiment in a line: Anticancer activity against human CCRF-CEM cells assessed as cell viability at 50 uM after 48 hrs by MTT assay. The assay is classed as functional. The conditions noted are these: read-out: Activity.
The test system of assay [9] is CCRF-CEM. Briefly: Anticancer activity against human CCRF-CEM cells assessed as cell viability at 100 uM after 48 hrs by MTT assay. The assay is classed as functional. The conditions noted are these: read-out: Activity.
For assay [10], the target named is Casein kinase II subunit alpha (Homo sapiens) (UniProt P68400). The experiment in a line: Inhibition of human CK2alpha using RRRDDDSDDD peptide substrate at 200 uM by P81 filter-binding assay. Further details: scale not given: the % may be the effect or the level left.
The test system of assay [11] is MCF7. The experiment in a line: Anticancer activity against human MCF7 cells assessed as cell viability at 25 uM after 24 hrs by MTT assay. The assay is classed as functional. To be noted: MCF7, 24 h, read-out: Activity.
The test system of assay [12] is MCF7. Briefly: Anticancer activity against human MCF7 cells assessed as cell viability at 50 uM after 48 hrs by MTT assay. To be noted: MCF7, 48 h, read-out: Activity. Format: functional.
In assay [13] the test system is CCRF-CEM. Briefly: Anticancer activity against human CCRF-CEM cells assessed as cell viability at 12.5 uM after 24 hrs by MTT assay. Format: functional. The conditions noted are these: read-out: Activity.
The test system of assay [14] is MCF7. Briefly: Anticancer activity against human MCF7 cells assessed as cell viability at 50 uM after 24 hrs by MTT assay. The assay is classed as functional. To be noted: MCF7, 24 h, read-out: Activity.
The test system of assay [15] is CCRF-CEM. Briefly: Anticancer activity against human CCRF-CEM cells assessed as cell viability at 100 uM after 24 hrs by MTT assay. The assay is classed as functional. To be noted: read-out: Activity.
Assay [16] deals with MCF7. Briefly: Anticancer activity against human MCF7 cells assessed as cell viability at 12.5 uM after 48 hrs by MTT assay. To be noted: MCF7, 48 h, read-out: Activity. The assay is classed as functional.
Assay [17] relates to MCF7. The experiment in a line: Anticancer activity against human MCF7 cells assessed as cell viability at 100 uM after 24 hrs by MTT assay. The assay is classed as functional. The conditions noted are these: MCF7, 24 h, read-out: Activity.
For assay [18], the system named is CCRF-CEM. The experiment in a line: Anticancer activity against human CCRF-CEM cells assessed as cell viability at 25 uM after 24 hrs by MTT assay. Format: functional. The conditions noted are these: read-out: Activity.

Casein kinase II subunit alpha (Homo sapiens), sequence (P68400 whole entry, looked up): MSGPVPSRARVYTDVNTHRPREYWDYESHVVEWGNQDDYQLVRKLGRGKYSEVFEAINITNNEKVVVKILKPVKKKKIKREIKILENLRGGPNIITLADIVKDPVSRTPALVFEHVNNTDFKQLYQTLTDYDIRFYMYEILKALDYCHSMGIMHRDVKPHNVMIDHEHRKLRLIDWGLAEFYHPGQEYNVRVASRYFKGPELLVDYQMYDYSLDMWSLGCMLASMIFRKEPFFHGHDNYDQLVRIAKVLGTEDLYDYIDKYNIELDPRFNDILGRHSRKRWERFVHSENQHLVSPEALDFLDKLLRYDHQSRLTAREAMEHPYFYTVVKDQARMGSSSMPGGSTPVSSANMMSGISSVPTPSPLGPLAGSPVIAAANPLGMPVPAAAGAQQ

As to `COc1cccc(C(O)CCn2nc3c(Br)c(Br)c(Br)c(Br)c3n2)c1` (stereo not drawn), the viability at 25 µM in the assay with CCRF-CEM [1] was 50%; in the assay on MCF7 [4] it was 96%; in the assay with MCF7 [11], 71%; with CCRF-CEM [18], 106%. The viability at 12.5 µM in the assay with CCRF-CEM [2] is 96%; with MCF7 [7], 121%; in the assay on CCRF-CEM [13], 110%; in the assay on MCF7 [16] it was 97%. The viability at 50 µM in the assay with CCRF-CEM [3] was found to be 58%; in the assay on CCRF-CEM [8] it was 2%; in the assay on MCF7 [12], 20%; in the assay with MCF7 [14], 22%. Moreover, the Activity in assay [5] came out at 95.1%; in assay [10] it was 87.5%. Besides, the viability at 100 µM with MCF7 [6] amounted to 6%; in the assay on CCRF-CEM [9], 2%; in the assay on CCRF-CEM [15], 48%; with MCF7 [17] it was 16%.
